Measured values from patent US20150299250A1, “MACROCYCLIC COMPOUNDS AND USES THEREOF” (ADELAIDE RESEARCH & INNOVATION PTY LTD, priority 2012, published 2015).

Columns and labels:
[1] = target: bovine α-chymotrypsin (bCT) (Bos taurus, UniProt P00766); assay: Bovine chymotrypsin spectrophotometric assay (Suc-Ala-Ala-Pro-Phe-pNA); type: biochemical
Method: The activity of bCT was assayed spectrophotometrically with a Varian Cary 5000 UV-VIS-NIR spectrophotometer equipped with a thermostated multicell holder at 25.0±0.1° C. Assay buffer was: Tris-HCl (77 mM), CaCl2 (20 mM), pH 7.8 (pH optimum of α-chymotrypsin {3}). A solution of bCT (21.9 μg/mL) in aq HCl (1 mM) was prepared daily by a 1:40 dilution of a stock solution (874 μg/mL) in aq HCl (1 mM) and kept at 0° C. A 1:100 dilution in ice-cold aq HCl (1 mM) was prepared immediately before starting each measurement. Stock solutions of the substrate Suc-Ala-Ala-Pro-Phe-pNA (10 mM) and all inhibitors (5 mM) were freshly prepared in DMSO and stored at r.t. All compounds were analyzed at five different inhibitor concentrations, [I]. Progress curves were monitored at 405 nm over 6 min and characterized by a linear steady state turnover of the substrate.
The Inhibition studies were performed in the presence of 6% v/v DMSO in a volume of 1 mL containing 0.011 μg/mL bCT, different concentrations of Suc-Ala-Ala-Pro-Phe-pNA (10-100 μM) and inhibitor. Into a cuvette containing 890 μL assay buffer, 10 μL of substrate solution (1-10 mM), inhibitor stock, and DMSO were added to give a total volume of […]. After thoroughly mixing the contents of the cuvette, the enzymatic reaction was initiated by adding 50 μL of bCT solution. Uninhibited enzyme activity was determined by adding DMSO instead of inhibitor solution. Non-enzymatic hydrolysis of Suc-Ala-Ala-Pro-Phe-pNA was analyzed by adding DMSO and 1 mM aqueous HCl instead of inhibitor and enzyme solution, respectively, and found to be negligible. The rate of enzyme-catalyzed hydrolysis of 100 μM substrate was determined without inhibitor in each experiment and was set to 100%. Ki values of inhibitors were determined graphically according to Dixon {4} using mean values of percentage rates obtained in three separate experiments at two different substrate concentrations, [S].

[2] = target: T1, 20S proteasome chymotrypsin-like (CT-L) activity (Oryctolagus cuniculus, UniProt G1T4Q9); assay: In vitro proteasome activity assay, CT-L (Suc-LLVY-AMC); type: biochemical, rabbit; settings: purified 20S proteasome
T1 sequence (G1T4Q9 1-263): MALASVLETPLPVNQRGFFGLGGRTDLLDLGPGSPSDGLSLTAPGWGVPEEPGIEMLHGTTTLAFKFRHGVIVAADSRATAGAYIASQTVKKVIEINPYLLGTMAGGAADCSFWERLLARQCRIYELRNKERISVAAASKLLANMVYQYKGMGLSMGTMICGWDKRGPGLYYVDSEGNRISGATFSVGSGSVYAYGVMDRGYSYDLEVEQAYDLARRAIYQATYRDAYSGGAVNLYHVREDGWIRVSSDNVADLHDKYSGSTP
Method: (§1) The assays were performed in vitro using purified 20S proteasome/inhibitor mixtures, with the activity of each subunit of the proteasome assessed upon incubation with its respective target peptide.
(§2) Purified rabbit 20S proteasome and fluorogenic CT-L substrate (Suc-LLVY-AMC) were purchased from Boston Biochem (Cambridge, Mass., USA). The T-L and CP-L fluorogenic substrates (Ac-RLR-AMC and Z-nLPnLD-AMC) were purchased from Enzo Life Sciences (Farmingdale, N.Y., USA). The 20S proteasome was diluted to 0.2 μg/μL in 20S proteasome buffer (50 mM HEPES pH 7.6, 150 mM NaCl and 1 mM DDT) and stored at −80° C. Purified 20S proteasome (8 ng) was pre-incubated with the indicated concentrations of inhibitors for 15 minutes and subsequently added to the AMC-labeled substrate peptide (50 μM) in assay buffer (25 mM HEPES, pH 7.5, 0.5 mM EDTA, 0.05% NP-40, and 0.001% SDS (w/v)) at 37° C. for 2 hours.

[3] = target: T2, 20S proteasome T-L activity (Oryctolagus cuniculus, UniProt G1SWK8); assay: In vitro proteasome activity assay, T-L (Ac-RLR-AMC); type: biochemical, rabbit; settings: for IC50: purified 20S proteasome, highest concentration tested 25,000 nM
T2 construct: purchased Boston Biochem
T2 sequence (G1SWK8 1-271): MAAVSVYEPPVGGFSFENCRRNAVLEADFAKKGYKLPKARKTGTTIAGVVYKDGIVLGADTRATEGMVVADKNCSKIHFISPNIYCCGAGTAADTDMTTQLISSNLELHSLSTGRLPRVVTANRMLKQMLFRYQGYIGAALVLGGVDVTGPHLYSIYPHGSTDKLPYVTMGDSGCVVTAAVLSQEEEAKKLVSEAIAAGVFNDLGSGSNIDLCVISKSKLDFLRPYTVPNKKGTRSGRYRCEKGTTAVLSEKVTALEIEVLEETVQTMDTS
Method: as §1, §2

[4] = target: T3, 20S proteasome CP-L activity (Oryctolagus cuniculus, UniProt A0A5F9DQW2); assay: In vitro proteasome activity assay, CP-L (Z-nLPnLD-AMC); type: biochemical, rabbit; settings: purified 20S proteasome; highest concentration tested 25,000 nM
T3 construct: Purified rabbit 20S proteasome
T3 sequence (A0A5F9DQW2 1-212): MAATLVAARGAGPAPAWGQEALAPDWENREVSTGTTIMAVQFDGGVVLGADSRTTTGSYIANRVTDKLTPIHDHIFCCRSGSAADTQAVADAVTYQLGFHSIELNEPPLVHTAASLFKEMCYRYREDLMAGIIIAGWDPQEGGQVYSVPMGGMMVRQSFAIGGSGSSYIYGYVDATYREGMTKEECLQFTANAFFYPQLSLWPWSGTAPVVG
Method: We initially determined the ability of the novel tripeptide MG132 analogues 1-6 and the macrocycles 3a and 4a to inhibit the three separate protease activities of the 20S proteasome (CT-L, -T-L and CP-L). The assays were performed in vitro using purified 20S proteasome/inhibitor mixtures, with the activity of each subunit of the proteasome assessed upon incubation with its respective target peptide. […] In addition, there is no apparent clear-cut preference for the length of tether (compare compounds 1 to 4), while the introduction of an aryl group at P3 (as in 6) is well tolerated.
as §2, with “hours. Fluorescent substrate cleavage by the 20S proteasome was linear during this incubation timeframe (Supplementary Figure S4. Hydrolysed 7-amino-4-methylcoumarin (AMC) was subsequently detected with the FLUOstar OPTIMA microplatefluorometer at excitation/emission of 390/460 nm. The activity was estimated in relative fluorescence units and half of the maximal inhibitory activity of the proteasome is represented by IC50 values. A minimum of three biological replicates were performed for each data point.” for “hours.”

[5] = system: WE-68 Ewing's sarcoma cells; assay: Cell viability assay (7AAD, 48 hours), WE-68; type: cell-based; settings: 48 hours exposure; read-out: Cancer cell lines IC50 (μM) WE-68
Method: (§3) Cell viability assays were performed as previously described. Briefly, cells were seeded in 96 well microtiterplates at a density of 3×10^4 cells per well in the presence of the indicated chemical. Cells were harvested 48 hours post-treatment, centrifuged at 1,300×g, washed in phosphate-buffered saline (PBS) and stained with 7AAD solution (2 μg/mL) (7-amino-actinomycin-D, Invitrogen, Carlsbad, Calif.) for 10 mins at room temperature. Viable cells were determined with the use of a FACS Calibur flow cytometer (Becton Dickinson Immunocytometry Systems), and analyzed with the use of FLOWJO (Tree Star, Inc) and GraphPad Prism (GraphPad Software Inc).
(§4) WE-68 and VH-64 Ewing's sarcoma cells were kindly supplied by F. van Valen (Department of Orthopaedic Surgery, Westfalische-Wilhelms-University, Germany).TC-252 and STA-ET-1 Ewing's sarcoma cells were kindly provided by G. Hamilton (Department of Surgery, University of Vienna, Austria) or P. Ambros (Children's Cancer Research Institute, St Anna Children's Hospital, Vienna, Austria). Primary human embryonic fibroblasts or primary human osteoblasts were collected from the Women's and Children's Hospital (North Adelaide, South Australia, Australia) or Royal Adelaide Hospital with patient consent. Mouse Embryonic Fibroblasts (MEFs) and its p53-null derivative were kindly supplied by Guillermina Lozano (Department of Genetics, Anderson Cancer Centre, University of Texas, Houston, Tex., USA). WE-68 cell lines were grown in RPMI-1640 media, whilst human embryonic fibroblasts and MEFs were grown in Dulbecco's Modified Eagle's Medium (DMEM). Media was supplemented with 10% FCS, 1% PSG and 10 mM HEPES. All cells were maintained at 37° C. in a humidified atmosphere of 5% CO2.

[6] = system: VH-64 Ewing's sarcoma cells; assay: Cell viability assay (7AAD, 48 hours), VH-64; type: cell-based; settings: 48 hours exposure; read-out: Cancer cell lines IC50 (μM) VH-64
Method: as §3, §4

[7] = system: STA-ET-1 Ewing's sarcoma cells; assay: Cell viability assay (7AAD, 48 hours), STA-ET-1; type: cell-based; settings: 48 hours exposure; read-out: Cancer cell lines IC50 (μM) STA-ET-1
Method: as §3, §4

[8] = system: TC-252 Ewing's sarcoma cells; assay: Cell viability assay (7AAD, 48 hours), TC-252; type: cell-based; settings: 48 hours exposure; read-out: Cancer cell lines IC50 (μM) TC-252
Method: as §3, §4

[9] = system: primary human embryonic fibroblasts; assay: Cell viability assay (7AAD, 48 hours), normal fibroblasts; type: cell-based; settings: Fibroblast, 48 hours exposure, read-out: Normal cell lines IC50 (μM) Fibroblasts
Method: as §3, §4

[10] = system: primary human osteoblasts; assay: Cell viability assay (7AAD, 48 hours), normal osteoblasts; type: cell-based; settings: Osteoblast, 48 hours exposure, read-out: Normal cell lines IC50 (μM) Osteoblasts
Method: as §3, §4

[11] = system: panel of sarcoma cell lines (WE-68, VH-64, STA-ET-1, TC-252); assay: Cell viability assay, panel of four sarcoma cell lines (average); type: cell-based; settings: for IC50: average of four sarcoma cell lines, read-out: Average IC50 for cancer cell lines
Method: as §3, §4

[12] = system: normal cell lines (fibroblasts, osteoblasts); assay: Cell viability assay, normal cell lines (average); type: cell-based; settings: Homo sapiens; average of fibroblasts and osteoblasts
Method: as §3, §4

Compound	Ki [1] [nM]	IC50 [3] [nM]	IC50 [4] [nM]	IC50 [5] [µM]	IC50 [6] [µM]	IC50 [7] [µM]	IC50 [8] [µM]	IC50 [11] [nM]	IC50 [9] [µM]	IC50 [10] [µM]	also measured
O=CC(Cc1ccccc1)NC(=O)C1CCCCOc2ccc(cc2)CCC(=O)c2ccc([nH]2)C(=O)N1 (centres unmarked) [Compound 2d]	431 ± 5	–	–	–	–	–	–	–	–	–	–
CC(C)CC1NC(=O)C(NC(=O)OCc2ccccc2)CCCCn2cc(nn2)COc2ccc(cc2)CC(C=O)NC1=O (centres unmarked) [Compound 4a]	–	> 25000	> 25000	18	> 50	37.6	39.4	31700	> 50	> 50	IC50 [2]: 250 nM
CC(C)CC(C=O)NC(=O)C1Cc2ccc(cc2)OCCCCOc2ccc(cc2)CCC(=O)c2ccc([nH]2)C(=O)N1 (centres unmarked) [Compound 3c]	1920 ± 167	–	–	–	–	–	–	–	–	–	–
O=CC(Cc1ccccc1)NC(=O)C1Cc2ccc(cc2)OCCCCOc2ccc(cc2)CCC(=O)c2ccc([nH]2)C(=O)N1 (centres unmarked) [Compound 3d]	33 ± 5	–	–	–	–	–	–	–	–	–	–

Now from value to compound, other results behind:

Ki [1] [nM]	IC50 [3] [nM]	IC50 [4] [nM]	IC50 [5] [µM]	IC50 [6] [µM]	IC50 [7] [µM]	IC50 [8] [µM]	IC50 [11] [nM]	Compound	IC50 [9] [µM]	IC50 [10] [µM]	also measured
–	> 25000	438	0.02	0.04	< 0.0008	0.01	20	CC(C)C[C@H](NC(=O)[C@H](Cc1ccccc1)NC(=O)c1cnccn1)B(O)O [Bortezomib, reference compound]	0.02	0.28	activation of T-L activity [3]: ^fBortezomib activated T-L activity by 32%.; Therapeutic window ([11]; fold change in potency (IC50) against cancer cell line versus normal cell line): ×9.1; IC50 [12]: 150 nM
2520 ± 248	–	–	–	–	–	–	–	O=C[C@H](Cc1ccccc1)NC(=O)[C@@H]1CCCCCCCCCCCC(=O)c2ccc([nH]2)C(=O)N1 [Compound 1d, (S)-2,16-dioxo-N—((S)-1-oxo-3-phenylpropan-2-yl)-3,20-diazabicyclo[15.2.1]icosa-1(19),17-diene-4-carboxamide]	–	–	–
